Experiment [1] deals with S. aureus ATCC 25923. As to the kind of experiment: Agar well diffusion, zone of inhibition. The note with it: 8 mm wells, nanoparticles 100 μL (50 μg) per well, tetracycline 15 μg/wells, 24 hr at 37° C. Type of experiment: cell-based, Staphylococcus aureus. The procedure:
(§1) For bacterial growth, a lawn of culture was prepared by spreading the […] of each test organism on nutrient agar plates. Plates were left standing for 10 minutes to let the culture get absorbed. Then 8 mm wells were punched into the nutrient agar plates for testing nanomaterial antimicrobial activity. Using a micropipette, 100 μL (50 μg) of the sample of nanoparticle suspension was poured onto each of five wells on all plates. After 24 hr incubation at 37° C.±2° C., the diameter of inhibition zone was measured.
On the technique in general: A growth-free zone around the sample is the usual read-out of agar diffusion tests.

For experiment [2], the system named is E. coli. As to the kind of experiment: Agar well diffusion, zone of inhibition. It is filed as cell-based. Conditions: 8 mm wells, nanoparticles 100 μL (50 μg) per well, tetracycline 15 μg/wells, 24 hr at 37° C. The procedure: as §1

This note sets out measurements from US12715781B2, “Water treatment and purification method” (priority 2019, dated 2026).

SMILES strings stand for the structures.

For the compound `CN(C)[C@@H]1C(O)=C(C(N)=O)C(=O)[C@@]2(O)C(O)=C3C(=O)c4c(O)cccc4[C@@](C)(O)[C@H]3C[C@@H]12` [Tetracycline, tetracycline], the values for the Inhibitions zones diameters in experiment [1] and in experiment [2] were 18 ± 0.2 mm and 20 ± 0.2 mm, respectively.
